Where two headings read alike, the source gives them in different places.
Tests used:
[1] = molecular target: PDE4B (aa 152-484, Uniprot ID Q07343) (Homo sapiens (Human), UniProt Q07343); assay: PDE4 SPA assay (scintillation proximity assay); type: biochemical; settings: read-out: PDE4B2 IC50
In short: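 PDE4B (aa 152-484, ~81.6 pM) preincubated ~10 min with compound, then 1 μM ³H/unlabeled cAMP added in Tris pH 7.5, 1.3 mM MgCl2, 0.004% Brij 35, ~2% DMSO; 30 min at RT. Product captured on SPA beads and counted; IC50 by four-parameter logistic fit.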

[2] = system: IL-4; assay: Cytokine assay: IL-4 release from PHA-L stimulated human PBMCs; type: cell-based; settings: read-out: IL4 IC50
In short: (§1)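 Thawed human PBMCs (about 250,000 per well) preincubated with compound (about 10 μM down by 4-fold dilution, 0.25% DMSO), then stimulated with 3.5 μg/mL PHA-L for 48 h at 37 °C. IL-4, IL-13 and IFNγ in supernatant measured by HTRF; IC50 from four-parameter logistic fit.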

[3] = system: IL-13; assay: Cytokine assay: IL-13 release from PHA-L stimulated human PBMCs; type: cell-based; settings: read-out: IL13 IC50
In short: as §1

[4] = system: IFNγ; assay: Cytokine assay: IFNγ release from PHA-L stimulated human PBMCs; type: cell-based
In short: as §1

PDE4B (aa 152-484, Uniprot ID Q07343), sequence (Q07343 324-656): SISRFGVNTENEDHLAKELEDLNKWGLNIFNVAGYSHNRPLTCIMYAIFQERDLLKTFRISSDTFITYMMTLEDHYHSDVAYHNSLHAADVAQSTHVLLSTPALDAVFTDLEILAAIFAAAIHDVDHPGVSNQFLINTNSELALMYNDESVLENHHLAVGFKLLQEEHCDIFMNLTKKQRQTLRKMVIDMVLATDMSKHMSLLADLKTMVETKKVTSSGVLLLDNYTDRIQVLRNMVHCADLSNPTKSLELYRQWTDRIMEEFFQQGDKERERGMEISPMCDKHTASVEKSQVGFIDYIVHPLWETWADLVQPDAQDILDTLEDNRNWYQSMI

| IC50 [1] [nM] | IC50 ([2]; Homo sapiens, PBMC) [nM] | IC50 ([3]; Homo sapiens, PBMC) [nM] | IC50 ([4]; Homo sapiens, PBMC) [nM] | IC50 [3] [nM] | IC50 [2] [nM] | IC50 [4] [nM] | Structure (SMILES) |
| --- | --- | --- | --- | --- | --- | --- | --- |
| 1.69 | 48.9 | 965 | 5.27 | – | – | – | CCOc1ccc(-c2cncc(C3COB(O)C3)c2)cc1OCC (stereo not drawn) [Example 96, 4-(5-(3,4-diethoxyphenyl)pyridin-3-yl)-1,2-oxaborolan-2-ol] |
| 1.37 | 44.3 | 957 | 9.42 | – | – | – | CSc1ccc(-c2cncc(C3COB(O)C3)c2)cc1OC1CCCC1 (stereo not drawn) [Example 99, 4-(5-(3-(cyclopentyloxy)-4-(methylthio)phenyl)pyridin-3-yl)-1,2-oxaborolan-2-ol] |
| 3.58 | 29.4 | 750 | 5.46 | – | – | – | CCCOc1cc(-c2cncc(C3COB(O)C3)c2)ccc1OCC (stereo not drawn) [Example 104, 4-(5-(4-ethoxy-3-propoxyphenyl)pyridin-3-yl)-1,2-oxaborolan-2-ol] |
| 2.41 | 27.1 | – | 4.17 | 613 | – | – | COc1ccc(-c2cncc(C3COB(O)C3)c2)c(F)c1OC (stereo not drawn) [Example 107, 4-(5-(2-fluoro-3,4-dimethoxyphenyl)pyridin-3-yl)-1,2-oxaborolan-2-ol] |
| 4.18 | – | – | – | 1270 | 22.7 | 6.24 | COc1ccc(-c2cncc(C3COB(O)C3)c2)c(F)c1OC (stereo not drawn) [Example 109, 4-(5-(2-fluoro-3,4-dimethoxyphenyl)pyridin-3-yl)-1,2-oxaborolan-2-ol] |
| 0.61 | 48.4 | 496 | 5.1 | – | – | – | CCCCCOc1cc(-c2cccc(C3COB(O)C3)c2)ccc1OC (stereo not drawn) [Example 110, 4-(4′-methoxy-3′-(pentyloxy)-[1,1′-biphenyl]-3-yl)-1,2-oxaborolan-2-ol] |
| 1.41 | – | 588 | – | – | 79.9 | 8.1 | CCCOc1cc(-c2cncc(C3COB(O)C3)c2)ccc1SC (stereo not drawn) [Example 112, 4-(5-(4-(methylthio)-3-propoxyphenyl)pyridin-3-yl)-1,2-oxaborolan-2-ol] |
| 1.1 | 38.4 | 509 | 1.68 | – | – | – | CCCOc1cc(-c2cncc(C3COB(O)C3)n2)ccc1OC (stereo not drawn) [Example 115, 4-(6-(4-methoxy-3-propoxyphenyl)pyrazin-2-yl)-1,2-oxaborolan-2-ol] |
| 1.8 | 64.2 | 520 | 10 | – | – | – | COc1cc(-c2cccc(C3COB(O)C3)c2)cc(C#N)c1OC (stereo not drawn) [Example 117, 3′-(2-hydroxy-1,2-oxaborolan-4-yl)-4,5-dimethoxy-[1,1′-biphenyl]-3-carbonitrile] |
| 0.9 | 9.78 | 531 | 2.65 | – | – | – | CCOc1cc(-c2cncc(C3COB(O)C3)c2)cc(C#N)c1OC (stereo not drawn) [Example 118, 3-ethoxy-5-(5-(2-hydroxy-1,2-oxaborolan-4-yl)pyridin-3-yl)-2-methoxybenzonitrile] |
| 1.11 | 171 | 2090 | 7.85 | – | – | – | CCOc1nc(-c2cccc(C3=CB(O)OC3)c2)ccc1OC [Example 120, 4-(3-(6-ethoxy-5-methoxypyridin-2-yl)phenyl)-1,2-oxaborol-2(5H)-ol] |
| 0.69 | 57.4 | 533 | 1.5 | – | – | – | CCOc1nc(-c2cccc(C3COB(O)C3)c2)ccc1OC (stereo not drawn) [Example 121, 4-(3-(6-ethoxy-5-methoxypyridin-2-yl)phenyl)-1,2-oxaborolan-2-ol] |
| 2.2 | – | – | – | 1660 | 9.48 | 10.1 | CCCOc1cc(-c2nc(C3COB(O)C3)cc(C(F)(F)F)n2)ccc1OC (stereo not drawn) [Example 124, 4-(2-(4-methoxy-3-propoxyphenyl)-6-(trifluoromethyl)pyrimidin-4-yl)-1,2-oxaborolan-2-ol] |
| 1.7 | 11.3 | 577 | 2.43 | – | – | – | COc1ccc(-c2cncc(C3COB(O)C3)n2)cc1OC1CCCC1 (stereo not drawn) [Example 125, 4-(6-(3-(cyclopentyloxy)-4-methoxyphenyl)pyrazin-2-yl)-1,2-oxaborolan-2-ol] |
| 4.04 | 34.5 | 3340 | 24.6 | – | – | – | COc1ccc(-c2cccc(C3=CB(O)OC3)c2)cc1OC1CCCC1 [Example 129, 4-(3′-(cyclopentyloxy)-4′-methoxy-[1,1′-biphenyl]-3-yl)-1,2-oxaborol-2(5H)-ol] |
| 1.6 | 120 | 587 | 3.21 | – | – | – | COc1ccc(-c2cccc(C3COB(O)C3)c2)cc1OC1CCCC1 (stereo not drawn) [Example 130, 4-(3′-(cyclopentyloxy)-4′-methoxy-[1,1′-biphenyl]-3-yl)-1,2-oxaborolan-2-ol] |
| 2.63 | 12.9 | 604 | 2.42 | – | – | – | COc1cc(C2COB(O)C2)nc(-c2ccc(OC)c(OC3CCCC3)c2)n1 (stereo not drawn) [Example 132, 4-(2-(3-(cyclopentyloxy)-4-methoxyphenyl)-6-methoxypyrimidin-4-yl)-1,2-oxaborolan-2-ol] |

| IC50 [1] [nM] | IC50 ([2]; Homo sapiens, PBMC) [nM] | IC50 ([3]; Homo sapiens, PBMC) [nM] | IC50 ([4]; Homo sapiens, PBMC) [nM] | IC50 [3] [nM] | IC50 [2] [nM] | IC50 [4] [nM] | Structure (SMILES) |
| --- | --- | --- | --- | --- | --- | --- | --- |
| 7.46 | 1.79 | 1110 | 3.04 | – | – | – | CCCOc1cc(-c2nc(CC(=O)O)cc(C3COB(O)C3)n2)ccc1OC (stereo not drawn) [Example 134, 2-(6-(2-hydroxy-1,2-oxaborolan-4-yl)-2-(4-methoxy-3-propoxyphenyl)pyrimidin-4-yl)acetic acid] |
| 10.3 | 15.3 | 668 | 7.24 | – | – | – | CCCOc1cc(-c2nc(C3COB(O)C3)ccc2F)ccc1OC (stereo not drawn) [Example 135, 4-(5-fluoro-6-(4-methoxy-3-propoxyphenyl)pyridin-2-yl)-1,2-oxaborolan-2-ol] |
| 2.04 | 1.08 | 988 | 0.9 | – | – | – | CCOc1cc(-c2cncc(C3COB(O)C3)c2C(F)F)ccc1OC (stereo not drawn) [Example 138, 4-(4-(difluoromethyl)-5-(3-ethoxy-4-methoxyphenyl)pyridin-3-yl)-1,2-oxaborolan-2-ol] |
| 0.95 | 3.35 | 701 | 2.24 | – | – | – | CCOc1cc(-c2cncc(C3COB(O)C3)c2C)c(F)cc1OC (stereo not drawn) [Example 141, 4-(5-(5-ethoxy-2-fluoro-4-methoxyphenyl)-4-methylpyridin-3-yl)-1,2-oxaborolan-2-ol] |
| 6.77 | 103 | 2240 | 52.1 | – | – | – | CCCOc1cccc(-c2cncc(C3COB(O)C3)c2)c1 (stereo not drawn) [Example 145, 4-(5-(3-propoxphenyl)pyridin-3-yl)-1,2-oxaborolan-2-ol] |
| 0.44 | 2.69 | 1260 | 1.57 | – | – | – | CCCOc1cc(-c2nc(C3COB(O)C3)ns2)ccc1OC (stereo not drawn) [Example 147, 4-(5-(4-methoxy-3-propoxyphenyl)-1,2,4-thiadiazol-3-yl)-1,2-oxaborolan-2-ol] |
| 0.24 | – | – | – | 759 | 4.92 | 1.68 | CCCOc1cc(-c2nc(C3COB(O)C3)ns2)ccc1OC (stereo not drawn) [Example 148] |
| 0.49 | 20.2 | 793 | 0.87 | – | – | – | COc1ccc(-c2cncc(C3COB(O)C3)c2)cc1OC1CCCC1 (stereo not drawn) [Example 149, 4-(5-(3-(cyclopentyloxy)-4-methoxyphenyl)pyridin-3-yl)-1,2-oxaborolan-2-ol] |
| 5.98 | 39.1 | 813 | 3.48 | – | – | – | CCOc1c(OC)ccc(-c2cccc(C3COB(O)C3)n2)c1C#N (stereo not drawn) [Example 151, 2-ethoxy-6-(6-(2-hydroxy-1,2-oxaborolan-4-yl)pyridin-2-yl)-3-methoxybenzonitrile] |
| 1.38 | 161 | 828 | 6.02 | – | – | – | COc1ccc(-c2cccc(C3COB(O)C3)c2)nc1OC (stereo not drawn) [Example 152, 4-(3-(5,6-dimethoxypyridin-2-yl)phenyl)-1,2-oxaborolan-2-ol] |
| 3.24 | 50.7 | 860 | 2.57 | – | – | – | COc1ccc(-c2cncc(C3COB(O)C3)c2)c(C#N)c1OC (stereo not drawn) [Example 153, 6-(5-(2-hydroxy-1,2-oxaborolan-4-yl)pyridin-3-yl)-2,3-dimethoxybenzonitrile] |
| 1.81 | 293 | 2600 | 5.64 | – | – | – | CCCOc1nc(-c2cccc(C3=CB(O)OC3)c2)ccc1OC [Example 155, 4-(3-(5-methoxy-6-propoxypyridin-2-yl)phenyl)-1,2-oxaborol-2(5H)-ol] |
| 0.82 | 127 | 901 | 1.56 | – | – | – | CCCOc1nc(-c2cccc(C3COB(O)C3)c2)ccc1OC (stereo not drawn) [Example 156, 4-(3-(5-methoxy-6-propoxypyridin-2-yl)phenyl)-1,2-oxaborolan-2-ol] |
| 2.96 | 190 | 906 | 5.62 | – | – | – | COc1cc(-c2ccc(OC)c(OC)c2)cc(C2COB(O)C2)c1 (stereo not drawn) [Example 157, 4-(3′,4′,5-trimethoxy-[1,1′-biphenyl]-3-yl)-1,2-oxaborolan-2-ol] |
| 12 | 59.1 | 929 | 10.2 | – | – | – | CCCOc1cc(-c2cc(C)cc(C3COB(O)C3)n2)ccc1OC (stereo not drawn) [Example 158, 4-(6-(4-methoxy-3-propoxyphenyl)-4-methylpyridin-2-yl)-1,2-oxaborolan-2-ol] |
| 15.1 | 468 | 931 | 25.1 | – | – | – | COc1ccc(-c2nc(C3COB(O)C3)cs2)cc1OC (stereo not drawn) [Example 159, 4-(2-(3,4-dimethoxyphenyl)thiazol-4-yl)-1,2-oxaborolan-2-ol] |
